# Columns and labels:
# [1] = system: FGF2 mitogenic activity; design: method as in PMID 12676958; conditions: read-out: IC50, inhibition of FGF2 mitogenic activity; cited from earlier work
# [2] = target: T1, FGF2 (Homo sapiens, UniProt P09038); assay: Competition with biotinylated recombinant TSP-1 domain (E123CaG1) for binding to FGF2 (DELFIA); conditions: Fig. 6B
# T1 construct: purchased R&D Systems, obtained through the NCI-Biological Resources Branch
# Text: Of the identified hits, 23 (Fig. 1 and Suppl. Table S1), made available from the NCI (NIH), were subjected to experimental analysis of FGF2 binding. We used an indirect assay, based on the competition of the tested molecules with the recombinant TSP-1 type III domain for binding to FGF2, an approach previously employed to analyze the FGF2/SM27 binding.
# Figure 2 FGF2-binding property of the selected hits, analyzed with an indirect assay, as ability to compete with the TSP-1 fragment E123CaG1 (comprising the type III repeats domain) for FGF2 binding, as described in Methods. Binding of the biotinylated recombinant domain to FGF2 in the presence or absence of each molecule (5 μM). Data are the percentage of control binding, mean and SE of 3 experiments performed in triplicate. *p < 0.05 compared to control (ANOVA followed by Bonferroni test).
# DELFIA® Microtitration plates and reagents were from PerkinElmer. Plates were coated overnight at 4 °C with FGF2 (0.1 μg in 40 μl /well PBS). After washing, non-specific binding sites were saturated by a 30 minute incubation with PBS 1% BSA. The biotin-labeled recombinant TSP-1 fragment (10 nM) was added in 40 μl PBS 1% BSA with or without the indicated concentration of small molecules, and incubated for 3 h at room temperature. The plates were washed with PBS 0.1% BSA and incubated for 1 h with 100 μl/well Eu-Labeled Streptavidin 1:1000 at room temperature. After washing, plates were incubated with DELFIA® Enhancement Solution. Time resolved fluorescence was measured using a Victor[3] multilabel plate reader (PerkinElmer).
# [3] = target: T2, FGF2 (Homo sapiens, UniProt P09038, A3E/C211S/C229S/S5E); assay: NMR titration (1H-15N HSQC) of 15N-labeled FGF2; type: binding; conditions: pH 5.5, 25 °C
# T2 construct: purchased ASLA (Riga, Latvia)
# T2 sequence (P09038 with tags, fused parts or gaps isoform P09038-2 C78S/C96S limits assumed): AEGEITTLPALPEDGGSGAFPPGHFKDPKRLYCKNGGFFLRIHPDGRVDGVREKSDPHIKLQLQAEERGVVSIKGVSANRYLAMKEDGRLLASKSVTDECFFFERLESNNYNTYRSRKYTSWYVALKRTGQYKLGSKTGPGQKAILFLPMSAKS
# Experimental: In order to investigate whether the functionalized phenylamino-substituted naphthalenes maintained the ability of TSP-1 and SM27 to target the heparin interaction site of FGF2[16][21], interaction studies between SM.1–31 or SM.1–34 (showing the highest activity) and FGF2 were performed by NMR. Each SM was titrated into a solution of ^15N-enriched FGF2 protein and a series of 2D ^1H^15N-HSQC experiments were recorded to follow the protein changes induced by the ligand. […] Residues showing the highest perturbations are Arg129 and Lys144, as previously observed for SM27, pointing to similar interactions that likely involve inhibitors SO3 groups.
# NMR samples contained 0.57 mM ^15N-labeled FGF2, dissolved in a buffer containing 50 mM potassium phosphate, 2 mM NaN3, and 10 mM deuterated DTT in 90% H2O/10% D2O, pH 5.5. For the identification of the binding region, SM.1–34 and SM.1–31 were incrementally added to protein solutions up to SM:FGF2 stoichiometric ratio of 3. NMR data were collected on a Bruker DMX 500 MHz spectrometer at 25 °C. 2D ^1H-^15N HSQC spectra were recorded with a sweep width of 13 ppm (^1H) and 40 ppm (^15N). 1k × 128 data points were used in proton and nitrogen dimensions, respectively. Data, acquired and processed using Topspin (Bruker Biospin), were apodized with a squared sinebell shifted by 90° and polynomial baseline correction. […]
# [4] = system: BAEC; assay: FGF2-induced endothelial cell proliferation assay; type: cell-based, Bovine; conditions: FGF2 5 ng/ml, 72 h
# Experimental: (§1) Figure 4 Biological activity of the selected hits. (A) Endothelial cell proliferation. BAEC were exposed to FGF2 (5 ng/ml) with increasing concentrations of molecules (3–80 μM). After 72 h, cells were stained and proliferation measured as absorbance. Data are the percentage of control proliferation (in absence of molecules), mean of value from 2 experiments performed in triplicate. (B–D) Aortic ring assay. Sections of murine aortas were embedded in Matrigel, in the presence of FGF2 (30 ng/ml) and the indicated small molecule. The formation of capillary structures sprouting from the rings was analyzed after 7 and 11 days as described in Methods, and the angiogenic response expressed as area covered by the sprouting structures (arbitrary units, mean and SE, n ≥ 6). (B) Antiangiogenic activity of the small molecules (100 μM). (C) Examples of time-dependent and dose-dependent effect of two compounds (SM.2–20 and SM.2–23), tested at 100 (diamond), 50 (circle) and 25 μM (triangle) compared to control (black squares). (D) Representative pictures of sprouting from control and SM.2–23 treated aortic sections. […] (E) Angiogenic response is evaluated 4 days later, and expressed as number of vessels entering the sponge (mean and SD). […]
# BAEC (2500 cells/well) were plated in 96-well plates in DMEM 1.5% FCS. […] Plates were then stained with crystal violet or MTS and analyzed as described.
# [5] = system: FGF2-induced angiogenesis; assay: Chorioallantoic membrane (CAM) assay; type: in vivo, White Leghorn chicken; conditions: FGF2 200 ng, compound 0.5 μg
# Experimental: as §1, with “μM).” for “μM). (C) Examples of time-dependent and dose-dependent effect of two compounds (SM.2–20 and SM.2–23), tested at 100 (diamond), 50 (circle) and 25 μM (triangle) compared to control (black squares). (D) Representative pictures of sprouting from control and SM.2–23 treated aortic sections.”
# Fertilized White Leghorn chicken eggs were incubated at 37 °C at constant humidity. […] At day 12, CAMs were photographed in ovo under a stereomicroscope (Olympus), and blood vessels entering the sponge within the focal plane of the CAM were counted by two observers in double blind.
# [6] = target: T1, FGF2; assay: Competition with biotinylated recombinant TSP-1 domain (E123CaG1) for binding to FGF2 (DELFIA); conditions: for IC50: mean ± SE of 3 experiments; for fold more active than the initial query SM27 (competition IC50): vs SM27
# [7] = system: FGF2-induced vessels sprouting, murine aortic rings; assay: Aortic rings assay (FGF2-induced vessels sprouting, 3D Matrigel); design: species or system C57BL/6 mice; conditions: FGF2 30 ng/ml, small molecules 100 μM
# Experimental: Figure 4 Biological activity of the selected hits. (A) Endothelial cell proliferation. BAEC were exposed to FGF2 (5 ng/ml) with increasing concentrations of molecules (3–80 μM). After 72 h, cells were stained and proliferation measured as absorbance. Data are the percentage of control proliferation (in absence of molecules), mean of value from 2 experiments performed in triplicate. (B–D) Aortic ring assay. Sections of murine aortas were embedded in Matrigel, in the presence of FGF2 (30 ng/ml) and the indicated small molecule. The formation of capillary structures sprouting from the rings was analyzed after 7 and 11 days as described in Methods, and the angiogenic response expressed as area covered by the sprouting structures (arbitrary units, mean and SE, n ≥ 6). (B) Antiangiogenic activity of the small molecules (100 μM). (C) Examples of time-dependent and dose-dependent effect of two compounds (SM.2–20 and SM.2–23), tested at 100 (diamond), 50 (circle) and 25 μM (triangle) compared to control (black squares). (D) Representative pictures of sprouting from control and SM.2–23 treated aortic sections. Original magnification, 20x. (E,F) Chorioallantoic membrane assay. FGF2 (200 ng) was administered in the absence or presence of the indicated compound (0.5 μg) on day 8 (n = 10). (E) Angiogenic response is evaluated 4 days later, and expressed as number of vessels entering the sponge (mean and SD). (F) Representative pictures are shown. Original magnification, 50x.
# Thoracic aortas were removed from mice, cleaned of perivascular adipose tissue and cut into 1 mm segments. Matrigel (75 μl, BD Biosciences) was added to 96 well plates, and allowed to gellify at 37 °C for 30 min. Aortic sections were added to the wells, and covered with a second layer of Matrigel and DMEM 5% FCS containing FGF2 (30 ng/ml) and the indicated concentration of the compounds. The formation of capillary structures sprouting from the rings was analyzed after 4, 7 and 11 days with an inverted-phase contrast microscope (IX70; Olympus). Images were analyzed with ImageJ 1.48, and the angiogenic response expressed as area covered by the sprouting structures (arbitrary units), substracted the area of the aortic section.
# [8] = target: T1, FGF2; assay: SPR direct binding to sensorchip-immobilized FGF2; conditions: single site model, one experiment representative of two, read-out: Kd (dissociation constant) of FGF2/compound interaction
# Experimental: SPR measurements were performed on a BIAcore X100 instrument (GE-Healthcare, WI). FGF2 was immobilized on a CM5 sensorchip (GE-Healthcare) as described, allowing the immobilization of 7,365 resonance units (RU) (410 fmol/mm^2 of FGF-2).
# Suppl. Table S2. Determination of the affinity (Kd) of the FGF2/compound interactions by
# Binding parameters were calculated by the non-linear curve fitting software package BIAevaluation
# 3.2 using a single site model with correction for mass transfer. Dissociation constant (Kd) values
# were derived from the dissociation rate/association ratio. Only sensorgrams whose fitting gave
# values of X2 lower than 10 were used {Khalifa, 2001 #213}.
# T1 sequence (P09038 134-288 limits assumed): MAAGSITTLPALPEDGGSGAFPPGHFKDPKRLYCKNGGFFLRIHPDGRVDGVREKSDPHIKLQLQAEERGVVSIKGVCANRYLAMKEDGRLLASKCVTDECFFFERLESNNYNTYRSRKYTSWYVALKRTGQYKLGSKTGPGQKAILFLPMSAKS
ability to bind FGF2 in the competition assay (phenylamino-substituted naphthalenes) [2],affinity for FGF2 indicated by NMR titration [3],IC50 [6],fold more active than the initial query SM27 (competition IC50) [6],Compound,inhibition of FGF2-induced endothelial cell proliferation (antiproliferative activity) [4],inhibition of FGF2-induced angiogenesis in the CAM assay [5],also measured
most active,high micromolar range,,,"O=S(=O)([O-])c1cccc2cc(Nc3ccccc3)ccc12.[Na+] [SM.1–31, sodium 6-(phenylamino)naphthalene-1-sulfonate]",increased activity,,
most active,high micromolar range,,,"O=S(=O)([O-])c1cc(S(=O)(=O)[O-])c2ccc(Nc3ccccc3)cc2c1O.[Na+].[Na+] [SM.1–34, sodium 4-hydroxy-6-(phenylamino)naphthalene-1,3-disulfonate]",,,
,,610 ± 60 nM,6–11 fold,"Nc1cccc(/N=N/c2c(S(=O)(=O)O)cc3cc(NC(=O)Nc4ccc5c(O)c(/N=N/c6cccc(N)c6)c(S(=O)(=O)O)cc5c4)ccc3c2O)c1 [SM.2–18, 3-((E)-(3-aminophenyl)diazenyl)-7-(3-(6-((E)-(3-aminophenyl)diazenyl)-5-hydroxy-7-sulfonaphthalen-2-yl)ureido)-4-hydroxynaphthalene-2-sulfonic acid]",,active,
,,460 ± 100 nM,6–11 fold,"Cc1ccc(C)c(/N=N/c2c(S(=O)(=O)O)cc3cc(NC(=O)Nc4ccc5c(O)c(/N=N/c6ccc7cc(S(=O)(=O)O)ccc7c6)c(S(=O)(=O)O)cc5c4)ccc3c2O)c1 [SM.2–24, 3-((E)-(2,5-dimethylphenyl)diazenyl)-4-hydroxy-7-(3-(5-hydroxy-7-sulfo-6-((E)-(6-sulfonaphthalen-2-yl)diazenyl)naphthalen-2-yl)ureido)naphthalene-2-sulfonic acid]",,active,inhibition of FGF2-induced vessels sprouting [7]: significantly inhibited; Kd [8]: 111 nM

# Second part, the molecule before the results:
Compound,ability to bind FGF2 in the competition assay (phenylamino-substituted naphthalenes) [2],affinity for FGF2 indicated by NMR titration [3],IC50 [6],fold more active than the initial query SM27 (competition IC50) [6],inhibition of FGF2-induced endothelial cell proliferation (antiproliferative activity) [4],inhibition of FGF2-induced angiogenesis in the CAM assay [5],also measured
Nc1cccc2cc(S(=O)(=O)O)ccc12 [5-amino-2-naphthalenesulfonate],,,,,,,IC50 [1]: 265000 nM
"Oc1cccc2ccc(Nc3ccccc3)cc12 [SM.1–33, 8-hydroxy-N-phenylanaphthalen-2-aminium chloride]",inactive,,,,significant loss of activity,,
